Measured values: ChEMBL document CHEMBL2380269, “Conformationally restricted homotryptamines. Part 6: indole-5-cycloalkyl methylamines as selective serotonin reuptake inhibitors” (Bioorg Med Chem Lett, 2013)

What was measured:
[1] = biological target: Sodium-dependent serotonin transporter (Homo sapiens, UniProt P31645); experiment: Displacement of [3H]citalopram from human SERT expressed in HEK293 cell membranes
[2] = biological target: T1, Sodium-dependent dopamine transporter (Homo sapiens, UniProt Q01959); experiment: Displacement of [3H]WIN-35428 form human DAT expressed in HEK293 cell membranes at 1 uM
T1 sequence (Q01959 whole entry): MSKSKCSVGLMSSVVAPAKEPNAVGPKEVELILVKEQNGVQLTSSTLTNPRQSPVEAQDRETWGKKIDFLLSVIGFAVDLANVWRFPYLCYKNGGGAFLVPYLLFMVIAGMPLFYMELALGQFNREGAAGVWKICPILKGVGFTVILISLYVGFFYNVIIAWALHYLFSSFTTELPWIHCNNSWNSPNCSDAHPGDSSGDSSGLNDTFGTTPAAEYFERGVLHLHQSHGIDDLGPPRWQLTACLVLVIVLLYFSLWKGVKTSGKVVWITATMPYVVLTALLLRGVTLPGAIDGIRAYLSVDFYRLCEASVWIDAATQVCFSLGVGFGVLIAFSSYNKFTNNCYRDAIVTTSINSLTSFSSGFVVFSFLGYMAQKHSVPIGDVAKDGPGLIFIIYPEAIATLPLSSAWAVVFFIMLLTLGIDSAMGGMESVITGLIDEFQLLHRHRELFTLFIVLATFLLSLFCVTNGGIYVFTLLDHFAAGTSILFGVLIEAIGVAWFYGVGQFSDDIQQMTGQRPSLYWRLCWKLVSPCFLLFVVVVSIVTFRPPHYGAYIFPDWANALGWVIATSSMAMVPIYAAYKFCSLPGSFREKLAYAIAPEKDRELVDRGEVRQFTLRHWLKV

HEK293 [3] = experiment: Ratio of IC50 for human DAT expressed in HEK293 cell membranes to IC50 for human SERT expressed in HEK293 cell membranes; assay type: cell-based
[4] = biological target: T2, Sodium-dependent noradrenaline transporter (Homo sapiens, UniProt P23975); experiment: Displacement of [3H]nisoxetine from human NET expressed in HEK293 cell membranes at 1 uM
T2 sequence (P23975 whole entry): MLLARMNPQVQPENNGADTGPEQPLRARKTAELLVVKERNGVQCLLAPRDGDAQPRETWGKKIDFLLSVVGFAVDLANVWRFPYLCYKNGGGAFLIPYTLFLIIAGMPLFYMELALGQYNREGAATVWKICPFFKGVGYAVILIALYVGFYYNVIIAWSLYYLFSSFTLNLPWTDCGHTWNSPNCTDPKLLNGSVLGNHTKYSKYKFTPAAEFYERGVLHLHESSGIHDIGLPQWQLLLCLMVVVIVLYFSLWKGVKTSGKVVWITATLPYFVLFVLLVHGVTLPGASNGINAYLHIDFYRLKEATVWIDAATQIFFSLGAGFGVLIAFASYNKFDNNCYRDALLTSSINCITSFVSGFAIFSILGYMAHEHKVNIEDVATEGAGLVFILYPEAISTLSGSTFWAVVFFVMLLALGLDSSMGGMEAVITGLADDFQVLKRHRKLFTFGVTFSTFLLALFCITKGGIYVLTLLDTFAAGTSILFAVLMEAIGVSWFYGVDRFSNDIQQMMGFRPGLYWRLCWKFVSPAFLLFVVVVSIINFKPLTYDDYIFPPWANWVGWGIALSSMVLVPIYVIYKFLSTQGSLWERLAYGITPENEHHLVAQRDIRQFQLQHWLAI

HEK293 [5] = experiment: Ratio of IC50 for human NET expressed in HEK293 cell membranes to IC50 for human SERT expressed in HEK293 cell membranes; assay type: cell-based
[6] = biological target: T2, Sodium-dependent noradrenaline transporter; experiment: Displacement of [3H]nisoxetine from human NET expressed in HEK293 cell membranes
[7] = biological target: T1, Sodium-dependent dopamine transporter; experiment: Displacement of [3H]WIN-35428 form human DAT expressed in HEK293 cell membranes

Sequence of Sodium-dependent serotonin transporter (P31645 whole entry): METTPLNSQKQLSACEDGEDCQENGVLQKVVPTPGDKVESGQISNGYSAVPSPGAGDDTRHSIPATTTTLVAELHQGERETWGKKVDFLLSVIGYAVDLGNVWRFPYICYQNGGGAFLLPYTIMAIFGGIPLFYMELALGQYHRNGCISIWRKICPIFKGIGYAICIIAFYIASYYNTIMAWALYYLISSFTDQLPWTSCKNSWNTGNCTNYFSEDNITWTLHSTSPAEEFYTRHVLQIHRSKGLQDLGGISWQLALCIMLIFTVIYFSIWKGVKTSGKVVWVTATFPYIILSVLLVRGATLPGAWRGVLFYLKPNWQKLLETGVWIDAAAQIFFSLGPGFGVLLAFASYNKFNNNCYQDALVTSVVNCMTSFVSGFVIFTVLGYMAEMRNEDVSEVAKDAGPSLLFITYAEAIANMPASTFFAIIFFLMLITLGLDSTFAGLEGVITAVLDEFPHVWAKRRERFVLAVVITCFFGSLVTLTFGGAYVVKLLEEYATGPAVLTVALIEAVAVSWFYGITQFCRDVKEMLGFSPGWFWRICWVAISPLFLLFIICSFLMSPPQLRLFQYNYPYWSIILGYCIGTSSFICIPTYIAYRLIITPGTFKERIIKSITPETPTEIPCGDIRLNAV

Row | IC50 [1] | inhibition [2] | inhibition [4] | IC50 [6] | IC50 [7] | SMILES | Ratio IC50 (HEK293 [3]) | Ratio IC50 (HEK293 [5])
1 | 18 nM | 56% | 68% |  |  | CN(C)C[C@H]1CCC[C@H]1c1ccc2[nH]cc(C#N)c2c1 (racemic) | > 100 | > 100
2 | 64 nM | 53% | 78% | 510 nM | 660 nM | CNC[C@H]1CCC[C@H]1c1ccc2[nH]cc(C#N)c2c1 (racemic) | 10 | 10
3 | 300 nM |  |  |  |  | N#Cc1c[nH]c2ccc([C@@H]3CCC[C@H]3CN3CCCC3)cc12 (racemic) |  | 
4 | 140 nM |  |  |  |  | CN(Cc1ccccc1)C[C@@H]1CCC[C@H]1c1ccc2[nH]cc(C#N)c2c1 (racemic) |  | 
5 | 4.3 nM | 49% | 16% | 3700 nM | 750 nM | CNC[C@@H]1CCC[C@H]1c1ccc2[nH]cc(C#N)c2c1 (racemic) | > 100 | > 100
6 | 200 nM |  |  |  |  | CCN(C)C[C@@H]1CCC[C@H]1c1ccc2[nH]cc(C#N)c2c1 (racemic) |  | 
7 | 710 nM |  |  |  |  | CCN(CC)C[C@@H]1CCC[C@H]1c1ccc2[nH]cc(C#N)c2c1 (racemic) |  | 
8 | 260 nM |  |  |  |  | CCNC[C@@H]1CCC[C@H]1c1ccc2[nH]cc(C#N)c2c1 (racemic) |  | 
9 | 97 nM | 17% | 25% |  |  | CN(C)C[C@H]1C[C@@H]1Cc1ccc2[nH]cc(C#N)c2c1 (racemic) | > 100 | > 100
10 | 3.8 nM | 50% | -1.7% | 8200 nM |  | CN(C)C[C@@H]1CCC[C@H]1c1ccc2[nH]cc(C#N)c2c1 (racemic) | > 100 | > 100
11 | 570 nM |  |  |  |  | CN(C)C[C@@H]1CCC[C@H]1c1ccc2c(c1)c(C#N)cn2C (racemic) |  | 
12 | 6 nM | 39% | 55% |  |  | CN(C)C[C@@H]1C[C@H]1c1ccc2[nH]cc(C#N)c2c1 (racemic) | > 100 | > 100

Row | SMILES | IC50 [1] | inhibition [2] | inhibition [4] | IC50 [6] | IC50 [7] | Ratio IC50 (HEK293 [3]) | Ratio IC50 (HEK293 [5])
13 | CN(C)C[C@H]1C[C@@H]1c1c[nH]c2ccc(C#N)cc12 | 0.56 nM |  |  |  |  |  | 
14 | CN(C)C[C@H]1CCC[C@H]1c1c[nH]c2ccc(C#N)cc12 | 1.1 nM |  |  |  |  |  | 
15 | CN(C)C[C@@H]1C[C@H]1c1ccc2[nH]ccc2c1 (racemic) | > 1000 nM |  |  |  |  |  | 
